Assay results: paper PMC7515829, “HKDC1 C-terminal based peptides inhibit extranodal natural killer/T-cell lymphoma by modulation of mitochondrial function and EBV suppression” (Leukemia, 2020)

Experiments:
MNCs from ENKTL patients = conditions: read-out: IC50 (µM) ENKTL, half-maximal cell death activity, peptides 0.1–15 µM, 6 h, PI staining, FACS, mean ± SEM, n in cell
Excerpt: We investigated the potential role of HKDC1-based peptides in ENKTL cells that were isolated from the MNCs of ENKTL patients or SNK6 cell line. Three different kinds of HKDC1-based targeting peptides, including the last 15 aa at either the N-terminal (HKN15) or C-terminal (HKC15), or the last eight aa at the C-terminal (HKC8) were selected; four different kinds of cell-penetrating sequences were employed to deliver the HKDC1-based peptides, including Antp (a 16 penetrating residue long sequence from the Drosophila antennapedia-homeodomain), penetration-accelerating segment, TAT (HIV-1 TAT sequence), and Tf (the Tf receptor (TfR) internalization sequence) sequences. All of the aa with the D-configuration (marked as D) were synthesized as retro-inverso peptides. […] We then evaluated the toxic effect of two peptides (including Tf-D-HKC15 and Tf-D-HKC8) on different kinds of primary and cancer cell lines (see details in Table 2). […] We also evaluated the peptide delivery efficiency using ^125I-labeled uptake assay for both Tf-D-HKC8 and Tf-D-HKC15 peptides.
Measurement of apoptosis and cell death. Apoptosis was evaluated by TUNEL assay using the In Situ Cell Death Detection Kit™ (Roche). Cells were fixed in 4% paraformaldehyde and labeled with TUNEL reagents. Stained cells were photographed by a fluorescence microscope (11). For cell death analysis, the propidium iodide (PI) staining was performed by addition of 6.25 µg/ml of PI to the cells, and cell death was immediately evaluated by FACS analysis (3).

SNK6 cells [1] = assay: Intracellular ATP level (luciferin/luciferase); type: cell-based, human; conditions: 0.5 µM peptide, 6 h, vs CTL, n = 5 (Fig. 4g)
Description: Measurement of mitochondrial function. Intracellular ATP level was determined using the luciferin/luciferase-induced bioluminescence system. An ATP standard curve was generated at concentrations of 10^-12-10^-3M, and intracellular ATP levels were calculated and expressed as nmol/mg protein. Mitochondrial membrane potential (Δψm) was measured using TMRE (from Molecular Probes T-669) staining. A 600μM T-669 stock solution was prepared using DMSO. Cells were grown on coverslips and immersed in 600nM TMRE for 20 min at 37°C to load them with dye. The labeling medium was then aspirated and the cells were immersed in 150nM TMRE to maintain an equal distribution of the fluorophore. The coverslips were mounted with live cells onto confocal microscopes to image the cells using 548nm excitation/573nm emission filters, and the intensity of TMRE fluorescence was measured using Image J software. Data from 10-20 cells were collected for each experimental condition and mean values of fluorescence intensity ± SEM were calculated (12).

SNK6 cells [2] = assay: Colony formation in soft agar; type: cell-based, human; conditions: 0.5 µM peptide, 6 h, vs CTL, n = 5 (Fig. 5e)
Description: Colony formation in soft agar. This assay is a method for evaluating the ability of individual cell lines to grow in an anchorage-independent manner. Cells were resuspended in DMEM containing 5% FBS with 0.3% agarose and layered on top of 0.5% agarose in DMEM on 60-mm plates. 1000 cells were seeded in 60mm soft agar dishes for 30 days. The dishes were examined twice per week, and colonies that grew beyond […] in diameter were scored as positive. Each experiment was done in quadruplicate (8).

SNK6 xenograft = assay: Tumor growth by H&E staining (tumor spots); type: in vivo, mouse; conditions: nude mice, intratumoral 50 µM peptide every 2 days from day ~18, tissue day 50, vs CTL, n = 5
Excerpt: Biomedical analysis of tumor tissues.

ABCB1 = assay: mRNA level by qPCR in SNK6 cells; type: cell-based, human; conditions: 0.5 µM peptide, 6 h, vs CTL, n = 4 (Fig. 3f)
Description: Fig. 3 Peptide for the last eight aa of HKDC1 at the C-terminal (Tf-D-HKC8) inhibits EBV replication and P-gp expression through ROS generation and DNA damage in ENKTL cells. SNK6 cells were treated with control (CTL), Tf-D-HKN15, Tf-D-HKC15, or Tf-D-HKC8 peptide (0.5 µM) for 6 h and the cells were used for biomedical analysis. a ROS formation, n = 5. b 3-nitrotyrosine (3-NT) formation, n = 5. c 8-OHdG formation, n = 5. d Quantitation of γH2AX formation, n = 5. e Representative western blotting bands for d. f mRNA level by qPCR for BZLF1, BMRF1, and ABCB1, n = 4. g Protein quantitation for Zta, EA-D, and P-gp, n = 5. h Representative pictures of western blots for g. i EBV viral genomes/cell by qPCR, n = 4. *P < 0.05, vs CTL group; ^¶P < 0.05, vs Tf-D-HKC15 group. Results were expressed as mean ± SEM.

HKDC1/VDAC1 [3] = target: T1, HKDC1/VDAC1 (Homo sapiens, UniProt P21796); assay: IP/WB association of HKDC1 with VDAC1 in SW480 cells; type: cell-based; design: endogenous in cells; conditions: 0.5 µM peptide, 6 h, compared with CTL group, n = 5 (Fig S3)
Description: (§1) Immunoprecipitation (IP) and Western Blotting (WB). Cell lysates were pre-cleared by pre-immune IgG plus Protein A agarose beads for 2 hours, and the supernatants were immunoprecipitated by the indicated antibodies and a 50% slurry of Protein A Agarose beads overnight at 4 °C (9). After washing with buffer containing 50 mM Tris, pH 7.5, 150 mM NaCl, 1% NP-40, and 0.5% deoxycholate with protease inhibitors, proteins were released, separated on 10% SDS-PAGE gels, blotted by primary antibodies, and then simultaneously incubated with the differentially labeled species-specific secondary antibodies, anti-RABBIT IRDye™ 800CW (green) and anti-MOUSE (or goat) ALEXA680 (red). Membranes were scanned and quantitated by the ODYSSEY Infrared Imaging System (LI-COR, NE) (10).
(§2) Figure S3. Peptide Tf-D-HKC8 dissociates HKDC1 from VDAC1 in cancer cells, but little effect on normal cells. Different cells, including HMECS, HANK1 and SW480, were treated by either control (CTL) or Tf-D-HKC8 peptide (0.5µM) for 6 hours, and the cells were used for IP/WB analysis. (a) Representative western blotting bands for IP/WB. (b) Protein quantitation for IP/WB for (a), n=5. *, P<0.05, vs CTL group. Results were expressed as mean ± SEM.

HKDC1/VDAC1 [4] = target: T1, HKDC1/VDAC1; assay: IP/WB association of HKDC1 with VDAC1 in HANK1 cells; type: cell-based; design: endogenous in cells; conditions: 0.5 µM peptide, 6 h, compared with CTL group, n = 5 (Fig S3)
Description: as §1, §2

HKDC1/VDAC1 [5] = target: T1, HKDC1/VDAC1; assay: IP/WB association of HKDC1 with VDAC1 in HMECs; type: cell-based; design: endogenous in cells; conditions: 0.5 µM peptide, 6 h, compared with CTL group, n = 5 (Fig S3)
Description: as §1, §2

T1 sequence (P21796 2-283 limits assumed): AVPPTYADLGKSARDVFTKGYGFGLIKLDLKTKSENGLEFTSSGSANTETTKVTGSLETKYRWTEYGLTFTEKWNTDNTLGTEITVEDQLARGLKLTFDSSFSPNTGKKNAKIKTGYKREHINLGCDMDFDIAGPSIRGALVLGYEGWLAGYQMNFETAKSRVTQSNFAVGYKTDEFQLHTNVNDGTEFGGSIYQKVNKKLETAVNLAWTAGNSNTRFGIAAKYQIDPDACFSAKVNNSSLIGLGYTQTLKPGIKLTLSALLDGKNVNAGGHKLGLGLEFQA

Substance	IC50 (MNCs from ENKTL patients) [µM]	intracellular ATP generation (SNK6 cells [1]) [%]	colony formation (SNK6 cells [2]) [%]	tumor growth using H&E staining (tumor spots) (SNK6 xenograft) [%]	ABCB1 mRNA (ABCB1) [%]	association of HKDC1 with VDAC1 in SW480 cells (HKDC1/VDAC1 [3]) [%]	association of HKDC1 with VDAC1 in HANK1 cells (HKDC1/VDAC1 [4]) [%]	association of HKDC1 with VDAC1 in HMECs (HKDC1/VDAC1 [5])
HAIYPRH-ITAVAKRLQQAQKEN [Tf-D-HKC15]	0.9 ± 0.3	61	64	56	58	–	–	–
HAIYPRH-LQQAQKEN [Tf-D-HKC8]	0.2 ± 0.1	30	28	23	27	67	34	little effect
